Reference: patent US20240408169A1 (priority 2023, published 2024)
*1 amine or outer side, *2 acyl side, *3 side chain or, on linkers, in order; H or OH if unused. Where a SMILES comes first, the peptide text is derived from it. Bridges are numbered along the chain shown (N, C = ends). [ ]: non-standard residue; d: D form. The star is where a group is joined. NMeAla(5-Cl-2-cPrO-3-pyridyl) = CN[C@@H](Cc1cc(Cl)cnc1OC1CC1)C(=O)O; NMehhhLys(Me) = CN([C@@H](CCCCCCCN(C)[*:3])C(=O)[*:2])[*:1]; NMe3Pal(2-OiPr,5-Cl) = CN[C@@H](Cc1cc(Cl)cnc1OC(C)C)C(=O)O; X211 = Cc1ncc(-c2ccc(Cl)cc2C[C@@H](C(=O)[*:2])N(C)[*:1])s1; X22 = CN([C@@H](Cc1cc(Cl)ccc1-c1cnn(C)c1)C(=O)[*:2])[*:1]; NMe(hhhLys) = CN([C@@H](CCCCCCCN[*:3])C(=O)[*:2])[*:1]; cBuCO(3,3-F2-1-CF3) = O=C(C1(C(F)(F)F)CC(F)(F)C1)*; NMePhe(2,5-Cl2) = CN[C@@H](Cc1cc(Cl)ccc1Cl)C(=O)O; Pro(trans-4-F) = O=C(O)[C@@H]1C[C@@H](F)CN1; Gly(cPr) = N[C@H](C(=O)O)C1CC1

Assays:
[1] = system: WI-38 cells; assay: MTT proliferation assay, WI-38; assay type: cell-based; details: 3 days compound exposure, 1:3 serial dilution starting at 10 μM;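 also: Eight- or ten-point dilution series, with exposure length chosen to span about three to four cell doublings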
[2] = system: OVCAR3 cells; assay: MTT proliferation assay, OVCAR3; assay type: cell-based; details: 5 days compound exposure, 1:3 serial dilution starting at 10 μM;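 also: compound given as an 8- or 10-point series, one day after plating, with exposure covering roughly 3-4 cell doublings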
[3] = molecular target: T1, CyclinE1/CDK2 (Homo sapiens, UniProt P24864); assay: Fluorescence Polarization (FP) competitive binding assay, Cyclin E1/Cdk2; details: 10 nM Cyclin E1/Cdk2, 2 nM FAM probe; average of 2-3 independent experiments; read-out: Cyclin E FP IC50;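 also: readings taken after two-hour equilibration at room temperature in HEPES buffer with NaCl, DTT, NP-40 and BSA, IC50 fitted from eight-concentration serial dilution series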
T1 construct: purchased Eurofins, discovery 14-475

[4] = system: NCI-H1048 cells; assay: MTT proliferation assay, NCI-H1048; assay type: cell-based; details: 5 days compound exposure, 1:3 serial dilution starting at 10 μM;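 also: Dose-response in 96-well plates over 8 or 10 concentration points, with exposure spanning 3-4 cell doublings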
[5] = molecular target: T2, CyclinB1/CDK1 (Homo sapiens, UniProt P14635); assay: Fluorescence Polarization (FP) competitive binding assay, Cyclin B1/Cdk1; details: 10 nM Cyclin B1/Cdk1, 2 nM FAM probe; average of 2-3 independent experiments; read-out: Cyclin B FP IC50;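 also: fluorescence polarization read after equilibration at room temperature, with IC50 taken from serially diluted dose-response curves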
T2 construct: purchased Eurofins, discovery 14-450

[6] = molecular target: T3, CyclinA2/CDK2 (Homo sapiens, UniProt P20248); assay: Fluorescence Polarization (FP) competitive binding assay, Cyclin A2/Cdk2; details: 8 nM Cyclin A2/Cdk2, 2 nM FAM probe; average of 2-3 independent experiments; read-out: Cyclin A FP IC50;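 also: plates equilibrated two hours at room temperature before polarization reading, IC50 fitted from eight-concentration compound titration curves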
T3 construct: purchased CRELUX Protein Services

CC(C)C[C@@H]1NC(=O)[C@@H](N(C)C(=O)[C@@H](NC(=O)[C@@H]2C[C@@H](F)CN2C(=O)C2(C(F)(F)F)CC(F)(F)C2)C2CC2)CC=CCCCCNC(=O)[C@H](Cc2cc(Cl)ccc2Cl)N(C)C1=O (single isomer, unassigned) [Example 6-P1]
GI50 [1]: 16400 nM | GI50 [2]: 90 nM | IC50 [3]: 500 nM | GI50 [4]: 50 nM | IC50 [5]: 20 nM

CC(C)C[C@@H]1NC(=O)[C@@H](N(C)C(=O)[C@@H](NC(=O)[C@@H]2C[C@@H](F)CN2C(=O)C2(C(F)(F)F)CC(F)(F)C2)C2CC2)CC=CCCCCNC(=O)[C@H](Cc2cc(Cl)ccc2Cl)N(C)C1=O (single isomer, unassigned) [Example 6-P2]
GI50 [1]: 15600 nM | GI50 [2]: 70 nM | IC50 [3]: 240 nM | GI50 [4]: 40 nM | IC50 [5]: 20 nM

CC(C)C[C@@H]1NC(=O)[C@@H](N(C)C(=O)[C@@H](NC(=O)[C@@H]2C[C@@H](F)CN2C(=O)C2(C(F)(F)F)CC(F)(F)C2)C2CC2)CC=CCCCCNC(=O)[C@H](Cc2cc(Cl)ccc2C2=CCN(C)CC2)N(C)C1=O (single isomer, unassigned) [Example 56-P1]
GI50 [1]: 5760 nM | GI50 [2]: 1020 nM | GI50 [4]: 470 nM | IC50 [5]: 40 nM | IC50 [6]: 860 nM

CC(C)C[C@@H]1NC(=O)[C@@H](N(C)C(=O)[C@@H](NC(=O)[C@@H]2C[C@@H](F)CN2C(=O)C2(C(F)(F)F)CC3(CCC3)C2)C2CC2)CC=CCCCCN(C)C(=O)[C@H](Cc2cc(Cl)ccc2Cl)N(C)C1=O [Example 15]
GI50 [1]: 7850 nM | GI50 [2]: 550 nM | IC50 [3]: 1040 nM | GI50 [4]: 180 nM | IC50 [5]: 20 nM

CC(C)C[C@@H]1NC(=O)[C@@H](N(C)C(=O)[C@@H](NC(=O)[C@@H]2C[C@@H](F)CN2C(=O)C2(C(F)(F)F)CC(F)(F)C2)C2CC2)CCCCCCCN(C)C(=O)[C@H](Cc2cc(Cl)ccc2Cl)N(C)C1=O [Example 25] ({cBuCO(3,3-F2-1-CF3)}-[Pro(trans-4-F)][Gly(cPr)][NMehhhLys(Me)]L[NMePhe(2,5-Cl2)]; lactam 3-C)
GI50 [1]: 8070 nM | GI50 [2]: 40 nM | IC50 [3]: 230 nM | GI50 [4]: 30 nM | IC50 [5]: 20 nM

CC(C)C[C@@H]1NC(=O)[C@@H](N(C)C(=O)[C@@H](NC(=O)[C@@H]2C[C@@H](F)CN2C(=O)C2(C(F)(F)F)CC(F)(F)C2)C2CC2)CCCCCCCNC(=O)[C@H](Cc2cc(Cl)ccc2-c2cnn(C)c2)N(C)C1=O [Example 66] ({cBuCO(3,3-F2-1-CF3)}-[Pro(trans-4-F)][Gly(cPr)][NMe(hhhLys)]L[X22]; lactam 3-C)
GI50 [1]: 12900 nM | GI50 [2]: 10 nM | GI50 [4]: 10 nM

Cc1ncc(-c2ccc(Cl)cc2C[C@H]2C(=O)N(C)CCCCCCC[C@H](N(C)C(=O)[C@@H](NC(=O)[C@@H]3C[C@@H](F)CN3C(=O)C3(C(F)(F)F)CC(F)(F)C3)C3CC3)C(=O)N[C@@H](CC(C)C)C(=O)N2C)s1 [Example 75] ({cBuCO(3,3-F2-1-CF3)}-[Pro(trans-4-F)][Gly(cPr)][NMehhhLys(Me)]L[X211]; lactam 3-C)
GI50 [1]: 5890 nM | GI50 [2]: 20 nM | IC50 [3]: 440 nM | GI50 [4]: 10 nM | IC50 [5]: 20 nM

CC(C)C[C@@H]1NC(=O)[C@@H](N(C)C(=O)[C@@H](NC(=O)[C@@H]2C[C@@H](F)CN2C(=O)C2(C(F)(F)F)CC(F)(F)C2)C2CC2)CCCCCCCN(C)C(=O)[C@H](Cc2cc(Cl)cnc2OC2CC2)N(C)C1=O [Example 105] ({cBuCO(3,3-F2-1-CF3)}-[Pro(trans-4-F)][Gly(cPr)][NMehhhLys(Me)]L[NMeAla(5-Cl-2-cPrO-3-pyridyl)]; lactam 3-C)
GI50 [1]: 18800 nM | GI50 [2]: 30 nM | GI50 [4]: 20 nM

CC(C)C[C@@H]1NC(=O)[C@@H](N(C)C(=O)[C@@H](NC(=O)[C@@H]2C[C@@H](F)CN2C(=O)C2(C(F)(F)F)CC(F)(F)C2)C2CC2)CCCCCCCN(C)C(=O)[C@H](Cc2cc(Cl)cnc2OC(C)C)N(C)C1=O [Example 120] ({cBuCO(3,3-F2-1-CF3)}-[Pro(trans-4-F)][Gly(cPr)][NMehhhLys(Me)]L[NMe3Pal(2-OiPr,5-Cl)]; lactam 3-C)
GI50 [1]: 9280 nM | GI50 [2]: 130 nM | IC50 [3]: 210 nM | GI50 [4]: 100 nM | IC50 [5]: 20 nM
